Data set [1] has as its system Vero. Description: Inhibition of CDK9/Cyclin T1 in African green monkey Vero cells infected with HSV1 assessed as catalytic hydrolysis of ATP measured after 12 hrs by Western blot analysis. The data set is classed as cell-based. The conditions noted are these: Chlorocebus aethiops. Background: In western blotting, separated proteins are transferred to a membrane and probed.

Data set [2] relates to Vero. In words: Suppression of phosphorylation of RNA polymerase at serine 2 C-terminal domain in HSV1 infected African green monkey Vero cells at 0.25 to 2 uM measured after 12 hrs incubation by Western blot analysis. The data set is classed as cell-based. The following applies: Human alphaherpesvirus 1, dose 0.25-2 µM.
For data set [3], the system named is Vero. Description: Inhibition of CDK7/Cyclin T1 in African green monkey Vero cells infected with HSV1 assessed as catalytic hydrolysis of ATP measured after 12 hrs by Western blot analysis. The data set is classed as cell-based. The conditions noted are these: Chlorocebus aethiops.
For data set [4], the system named is Vero. In words: Suppression of phosphorylation of RNA polymerase at serine 5 C-terminal domain in HSV1 infected African green monkey Vero cells measured after 12 hrs incubation by Western blot analysis. The format is cell-based. The conditions noted are these: Human alphaherpesvirus 1, dose 0.25-2 µM.
Data set [5] has as its system Human alphaherpesvirus 1. Description: Antiviral activity against ACV-resistant HSV1 153 infected in African green monkey Vero cells assessed as reduction of virus-induced cytopathic effect measured after 48 hrs of incubation. The format is functional, organism-based. The following applies: Human alphaherpesvirus 1, 153, Vero.
Data set [6] can be described thus: Toxicity in BALB/c mouse assessed as toxic side effects at 10 to 20 mg/kg, applied topically measured for 5 to 9 days post-infection. The conditions noted are these: in vivo, topical_or_ocular, dose lower 10 mg/kg, time lower 5 day, dose upper 20 mg/kg, time upper 9 day. The data set is classed as organism-based.
Data set [7] is described as follows: Selectivity index, ratio of CC50 for Cytotoxicity against african green monkey Vero cells to IC50 for Antiviral activity against HSV1 infected in African green monkey Vero cells. The conditions noted are these: read-out: Selectivity Index. The format is toxicity, cell-based.
The subject of data set [8] is Human alphaherpesvirus 1. Description: Antiviral activity against HSV1 infected in African green monkey Vero cells assessed as reduction of virus yield at 2 uM treated for 0 to 14 hrs of post-infection. The format is functional, organism-based. The following applies: time 0-14 hrs.
The test system of data set [9] is Human alphaherpesvirus 1. Description: In vivo antiviral activity against HSV1 infected in BALB/c mouse right ear by scratch assessed as reduction in gD glycoprotein level at 10 to 20 mg/kg, applied topically measured for 5 to 9 days post-infection. The data set is classed as functional, organism-based. The conditions noted are these: dose 10-20 mg/kg, time 5-9 day.

Data set [10] in a line: Cytotoxicity against African green monkey Vero cells assessed as cell viability measured after 24 hrs incubation by MTT assay. The data set is classed as toxicity, cell-based. The conditions noted are these: chlorocebus sabaeus. In general terms: Tetrazolium assays rely on reduction of a dye to a coloured formazan, in cell work by metabolically active cells.
Data set [11] concerns Human alphaherpesvirus 1. In words: In vivo antiviral activity against HSV1 infected in BALB/c mouse right ear by scratch assessed as reduction in skin lesions at 10 to 20 mg/kg, applied topically measured for 5 to 9 days post-infection. The format is functional, organism-based. The following applies: dose 10-20 mg/kg, time 5-9 day.
The test system of data set [12] is Human alphaherpesvirus 1. Description: In vivo antiviral activity against HSV1 infected in BALB/c mouse right ear by scratch assessed as increase in body weight at 10 to 20 mg/kg, applied topically measured for 5 to 9 days post-infection relative to control. The format is functional, organism-based. The following applies: dose 10-20 mg/kg, time 5-9 day.
For data set [13], the system named is Human alphaherpesvirus 1. In words: Antiviral activity against HSV1 expressing GFP infected in African green monkey Vero cells assessed as fold reduction in viral titer green fluorescence protein expression at 2 uM measured after 48 hrs post-infection by immunofluorescence based fluorescence microscopy. The data set is classed as functional.
Another data set has as its system Human alphaherpesvirus 2. In words: Antiviral activity against HSV2 infected in African green monkey Vero cells assessed as reduction of virus-induced cytopathic effect measured after 48 hrs of incubation. The format is functional, organism-based. The conditions noted are these: Human alphaherpesvirus 2, Vero. A general note: Protection from cytopathic effect is a common read-out in antiviral testing.

Data set [14] deals with Human alphaherpesvirus 1. Description: Antiviral activity against ACV-resistant HSV1 Blue infected in African green monkey Vero cells assessed as reduction of virus-induced cytopathic effect measured after 48 hrs of incubation. The following applies: Human alphaherpesvirus 1, Blue. The format is functional, organism-based.
Data set [15] relates to Human alphaherpesvirus 1. In words: In vivo antiviral activity against HSV1 infected in BALB/c mouse right ear by scratch assessed as reduction in ear thickness at 10 to 20 mg/kg, applied topically measured for 5 to 9 days post-infection. The format is functional, organism-based. The following applies: dose 10-20 mg/kg, time 5-9 day.
The subject of data set [16] is Human alphaherpesvirus 1. In words: Antiviral activity against HSV1 expressing GFP infected in African green monkey Vero cells assessed as reduction in green fluorescence protein expression at 1 uM measured after 24 hrs post-infection by immunofluorescence based fluorescence microscopy. The format is functional, organism-based.
Data set [17] has as its system Human alphaherpesvirus 1. In words: Antiviral activity against HSV1 infected in African green monkey Vero cells assessed as reduction of virus-induced cytopathic effect measured after 48 hrs of incubation. The data set is classed as functional, organism-based. The following applies: Human alphaherpesvirus 1, Vero.
For data set [18], the system named is Human alphaherpesvirus 1. In words: In vivo antiviral activity against HSV1 infected in BALB/c mouse right ear by scratch assessed as reduction in viral titer in ear tissue homogenate at 10 to 20 mg/kg, applied topically measured for 5 to 9 days post-infection. The format is functional, organism-based. The conditions noted are these: dose 10-20 mg/kg, time 5-9 day.

Data set [19] deals with Human alphaherpesvirus 1. In words: Antiviral activity against HSV1 infected in African green monkey Vero cells assessed as inhibition of transcription by measuring viral gene level at 0.25 to 2 uM by RT-PCR analysis relative to control. The data set is classed as functional, organism-based. The following applies: dose 0.25-2 µM.
The test system of data set [20] is Human alphaherpesvirus 1. In words: Antiviral activity against HSV1 expressing GFP infected in African green monkey Vero cells assessed as fold reduction in viral titer green fluorescence protein expression measured after 48 hrs post-infection by immunofluorescence based fluorescence microscopy. The format is functional.
The test system of data set [21] is Human alphaherpesvirus 1. Description: Antiviral activity against HSV1 infected in African green monkey Vero cells assessed as inhibition of virus replication at 2 uM treated 8 hrs of post-infection. The format is functional, organism-based.
Data set [22] has as its system Human alphaherpesvirus 1. Description: Antiviral activity against HSV1 expressing GFP infected in African green monkey Vero cells assessed as suppression of infection at 50 times of IC50 concentration measured after 48 hrs post-infection. The format is functional, organism-based.

The source made the active and inactive calls. No cut-off for these calls is given here.

One may read the IC50 as the concentration that gives 50% inhibition. Usually CC50 stands for the concentration at which the toxic effect on the cells reaches its halfway point.

Turning to `CC(C)(C)c1cnc(CSc2cnc(NC(=O)C3CCNCC3)s2)o1`, the result in the data set with Vero [1], with Vero [2] and in the data set on Vero [3] was Active.

Take `CC(C)CC(=O)c1c(O)cc2c(c1O)C(CC(C)C)C1=C(O2)C(C)(C)C(=O)C(C)(C)C1=O` (racemic): the values for the Activity result (in the data set on Vero [4]; in [6]; in the data set on Vero [2]) were “Dose-dependent-effect”, “Non-toxic” and “Active; Compound Showed Only Slight Inhibition”, respectively. Further, the IC50 in the data set on Human alphaherpesvirus 1 [5] is 300 nM; in the data set with Human alphaherpesvirus 2, 350 nM; with Human alphaherpesvirus 1 [14], 300 nM; with Human alphaherpesvirus 1 [17] it was 390 nM. Besides, the selectivity ratio in data set [7] was 17.9. Moreover, the outcome with Human alphaherpesvirus 1 [8], in the data set on Human alphaherpesvirus 1 [9], in the data set with Human alphaherpesvirus 1 [11], in the data set with Human alphaherpesvirus 1 [12], in the data set on Human alphaherpesvirus 1 [13] and in the data set on Human alphaherpesvirus 1 [15] was Active. Further, the outcome in the data set on Human alphaherpesvirus 1 [16], in the data set on Human alphaherpesvirus 1 [18] and in the data set with Human alphaherpesvirus 1 [19] was Active. In data set [10], the CC50 at 24 h was 7000 nM. Further, the outcome in the data set with Vero [3] was inactive. Besides, the “fold change (FC)” value in the data set on Human alphaherpesvirus 1 [20] was 3943.

As to `CC(C)CC1C2=C(Oc3cc(O)c(C(=O)C4CCC4)c(O)c31)C(C)(C)C(=O)C(C)(C)C2=O` (stereo not drawn), the IC50 with Human alphaherpesvirus 1 [5] amounted to 300 nM; in the data set on Human alphaherpesvirus 1 [14], 250 nM; in the data set with Human alphaherpesvirus 1 [17] it was 500 nM. Further, in [7], the selectivity ratio worked out at 26. Moreover, the outcome in the data set on Human alphaherpesvirus 1 [8] was Active. Moreover, the CC50 at 24 h in data set [10] is 13000 nM. Also, in the data set with Human alphaherpesvirus 1 [13], the “fold change (FC)” value is recorded as 1867. Further, the Activity entry with Human alphaherpesvirus 1 [20] is “Dose-dependent-effect”.

Turning to `Nc1nc2c(ncn2COCCO)c(=O)[nH]1` [ACYCLOVIR], the figures for the IC50 in the data set on Human alphaherpesvirus 1 [5], with Human alphaherpesvirus 1 [14] and with Human alphaherpesvirus 1 [17] were above 100000 nM, above 100000 nM and 1200 nM, respectively. In addition, the selectivity ratio in data set [7] is above 80. Further, the CC50 at 24 h in data set [10] is above 100000 nM. Moreover, the result with Human alphaherpesvirus 1 [21] was Active. The result in the data set on Human alphaherpesvirus 1 [22] was inactive.
